≈ marks a conversion by molar mass, not a printed value. Where two headings read alike, the source gives them in different places.

In data set [1] the test system is planktonic Pseudomonas aeruginosa. The data set is described as follows: MIC on planktonic bacteria (NCCLS dilution standard). The class given is cell-based. How it is done: The determination of the minimal inhibitory concentration (MIC) is performed according to the standard of NCCLS (NCCLS, Methods for dilution Antimicrobial Susceptibility Tests for bacteria that grow aerobically; approved standards, sixth edition, M7-A6, vol. 23 no. 2, January 2003.

Data set [2] deals with 12 day biofilm of Pseudomonas aeruginosa. The experiment in a line: Bacterial count (CFU/ml) of 12-day biofilm after 24 hours with the products. In kind it is cell-based. As to conditions: tobramycin 4 μg/ml alone; clarithromycin 100, 200 and 500 μg/ml alone; all combinations. An excerpt: Biofilms of Pseudomonas aeruginosa—strain PY O1 were formed according to the methods described by Ceri et al, the calgary biofilm device: new technology for rapid determination of antibiotic susceptibilities of bacterial biofilms, Journal of clinical microbiology, pp. 1771-1776, 1999 and Abdi-Ali et al, bactericidal activity of various antibiotics against biofilm-producing Pseudomonas aeruginosa, International Journal of Antimicrobial Agents 27, 196-200, 2006.
PY O1: is a cystic Fibrosis clinical mucoid strain of Pseudomonas aeruginosa received from the Erasme Hospital, Brussels.
After having shown that the number of Pseudomonas aeruginosa within the biofilms was stable after 12 days, the products listed in Table 1 were added to the media for the duration of 24 hours. Thereafter the biofilm was rinsed three times with a 0.01M phosphate buffer adjusted at pH 7.5 in order to remove all cells not bound to the biofilm. The microplate was then placed on ultrasonic bath at 35° C. for 5 minutes to allow the bacteria present in the biofilm to separate from such biofilm. A bacterial count was then performed (number of coloning forming unit CFU/ml). Each experience was done twice and the CFU counting was also repeated twice/experience.

The nature of data set [3]: In vitro lung deposition, Multistage Liquid Impinger (MLI). In kind it is physicochemical. As to conditions: for lung concentration obtained per capsule: composition of example 6, epithelial liquid in the lung estimated at about 100 ml. An excerpt:
The amount of macrolide agent inhaled shall be high enough to affect, in some way, the biofilm. It has to be noted that as the effect of macrolide derivatives on the biofilm is mediated through a non-antibacterial mechanism. […] Nevertheless, it is a another object of the present invention to provide a composition containing high concentrations (or amounts) of each of the aminoglycoside derivative and of the macrolide derivative i.e. at least more than 10%, preferably more than 15%, and more preferably more than 20% of the dry powder composition. It is indeed particularly interesting to achieve high lung doses of those therapeutic agents with the minimum amounts of inhalations because it makes the administration easier and more importantly increase the patient's compliance. It also decreases the nominal dose of each active ingredient and thus the adverse effects linked to these actives. In the present invention, the dry powder inhaler also provides a high Fine Particle Dose (FPD) and Fine Particle […] (FPF) when tested in vitro on a Multistage Liquid Impinger (MLI, Eur. Pharm, 5th Edition, chapter 2.9.18). The FPD and FPF are the parameters that predict in vivo lung deposition.
The in vitro lung deposition test was performed using equipment and conditions as described in the European Pharmacopoeia (5th edition, chapter 2.9.18—apparatus C). This equipment consists of a Multistage Liquid Impinger (MLI) and was operated with an air flow of 100 L/min during a period of time of 2.4 seconds to simulate inhalation capabilities of patients. The quantification of the deposition of each drug on each stage of the MLI was performed by HPLC equipped with a a Corona detector.

The mark [4] stands for this setting: composition of example 6, 10 mg/capsule, MLI 100 L/min, Mean (n = 3).
[5] abbreviates: composition of example 6, 10 mg/capsule, MLI 100 L/min, run MLI1.
[6] abbreviates: composition of example 6, 10 mg/capsule, MLI 100 L/min, run MLI2.
Where [7] appears, read: composition of example 6, 10 mg/capsule, MLI 100 L/min, run MLI3.

`NC[C@H]1O[C@H](O[C@H]2[C@H](O)[C@@H](O[C@H]3O[C@H](CO)[C@@H](O)[C@H](N)[C@H]3O)[C@H](N)C[C@@H]2N)[C@H](N)C[C@@H]1O` [Tobramycin]: in data set [1] (read-out: MIC), the minimal inhibitory concentration (MIC) was 3.9 µg/mL (≈ 8.34 µM). The “Decrease of the number of CFU/ml of the 12-day biofilm versus the positive control” value in data set [2] is “neither tobramycin 4 μg/ml nor clarithromycin at 100, 200 and 500 μg/ml alone are able to decrease the number of CFU/ml”. Moreover, the FPD is reported as 4.26 mg in data set [3] (setting [4]), 3.60 mg in data set [3] (setting [5]), 4.45 mg in data set [3] (setting [6]) and 4.72 mg in data set [3] (setting [7]). The compound further displayed a Filter deposition in data set [3] (setting [4]) of 0.760 mg. In addition, the “lung concentration obtained per capsule” value in data set [3] was 42.6 µg/mL.

Consider `CC[C@H]1OC(=O)[C@H](C)[C@@H](O[C@H]2C[C@@](C)(OC)[C@@H](O)[C@H](C)O2)[C@H](C)[C@@H](O[C@@H]2O[C@H](C)C[C@H](N(C)C)[C@H]2O)[C@](C)(OC)C[C@@H](C)C(=O)[C@H](C)[C@@H](O)[C@]1(C)O` [Clarithromycin], for which, in data set [1], the minimal inhibitory concentration (MIC) entry is “not sensitive”. Further, the “Decrease of the number of CFU/ml of the 12-day biofilm versus the positive control” value in data set [2] was “neither tobramycin 4 μg/ml nor clarithromycin at 100, 200 and 500 μg/ml alone are able to decrease the number of CFU/ml”. For the same compound, the FPD was 3.63 mg in data set [3] (setting [4]), 3.14 mg in data set [3] (setting [5]), 3.76 mg in data set [3] (setting [6]) and 3.98 mg in data set [3] (setting [7]). The Filter deposition in data set [3] (setting [4]) amounted to 0.550 mg. Besides, the “Stage 2 deposition” value in data set [3] (setting [7]) is reported as 0.680 mg. Also, the “lung concentration obtained per capsule” value in data set [3] is 36.3 µg/mL.

The MIC is the lowest concentration that inhibits growth of the organism.
